One data set concerns MSSE 81388 CANWARD 2008. Type of data set: cell-based, methicillin-susceptible S. epidermidis. The settings on record: 81388 CANWARD 2008, Mueller-Hinton broth, 24 hr, 37°C, without replication; for MIC MSSE in the presence of 4% bovine serum albumin: 4% BSA added, macrobroth dilution; for MIC MSSE: CLSI macrobroth dilution, 5 x 10^5 CFU/mL. The gist of the method: (§1)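 CLSI macrobroth dilution with doubling dilutions in cation-adjusted Mueller-Hinton broth in glass tubes, inoculum about 5 × 10^5 CFU/mL. Incubation 24 hr at 37°C in ambient air before MIC reading. Single determinations, no replication.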

The test system of data set [1] is S. maltophilia CAN-ICU 62584. Type of data set: cell-based, Stenotrophomonas maltophilia. The settings on record: CAN-ICU 62584, Mueller-Hinton broth, 24 hr, 37°C, without replication; for MIC S. maltophilia in the presence of 4% bovine serum albumin: 4% BSA added, macrobroth dilution; for MIC S. maltophilia: CLSI macrobroth dilution, 5 x 10^5 CFU/mL. The gist of the method:
as §1
In general terms: Broth dilution looks for growth in wells or tubes with falling amounts of substance.

The next data set deals with ovine erythrocytes. The data set is described as follows: Haemolytic assay. Type of data set: cell-based, sheep. The settings on record: ovine erythrocytes in Tris buffered saline, 30 minutes, absorbance of supernatant at 540 nm. The essentials:
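Washed sheep erythrocytes in Tris-buffered saline exposed to compound (50 μg/mL–1 mg/mL; final 4.08 x 10^8 cells/mL) for 30 min. After centrifugation, supernatant absorbance at 540 nm gave % haemolysis; 0.5% ammonium chloride as positive control.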

In a further data set the test system is E. faecalis ATCC 29212. Type of data set: cell-based, Enterococcus faecalis. The settings on record: ATCC 29212, Mueller-Hinton broth, 24 hr, 37°C, without replication; for MIC E. faecalis in the presence of 4% bovine serum albumin: 4% BSA added, macrobroth dilution; for MIC E. faecalis: CLSI macrobroth dilution, 5 x 10^5 CFU/mL. The gist of the method:
as §1

A further data set relates to MRSE CAN-ICU 61589. Type of data set: cell-based, methicillin-resistant S. epidermidis. The settings on record: CAN-ICU 61589, Mueller-Hinton broth, 24 hr, 37°C, without replication; for MIC MRSE in the presence of 4% bovine serum albumin: 4% BSA added, macrobroth dilution; for MIC MRSE: CLSI macrobroth dilution, 5 x 10^5 CFU/mL. The gist of the method: as §1
The subject of data set [2] is A. baumannii CAN-ICU 63169. Type of data set: cell-based, Acinetobacter baumannii. The settings on record: CAN-ICU 63169, Mueller-Hinton broth, 24 hr, 37°C, without replication; for MIC A. baumannii in the presence of 4% bovine serum albumin: 4% BSA added, macrobroth dilution; for MIC A. baumannii: CLSI macrobroth dilution, 5 x 10^5 CFU/mL. The gist of the method: as §1

The next data set deals with S.pneumoniae ATCC 49619. Type of data set: cell-based, Streptococcus pneumoniae. The settings on record: ATCC 49619, Mueller-Hinton broth, 24 hr, 37°C, without replication; for MIC S.pneumoniae in the presence of 4% bovine serum albumin: 4% BSA added, macrobroth dilution; for MIC S.pneumoniae: CLSI macrobroth dilution, 5 x 10^5 CFU/mL. The essentials:
as §1

For the next data set, the system named is E.coli CAN-ICU 61714. Type of data set: cell-based, Escherichia coli. The settings on record: CAN-ICU 61714, Mueller-Hinton broth, 24 hr, 37°C, without replication; for MIC E.coli in the presence of 4% bovine serum albumin: 4% BSA added, macrobroth dilution; for MIC E.coli: CLSI macrobroth dilution, 5 x 10^5 CFU/mL. The essentials:
as §1

Another data set has as its system E.coli ATCC 25922. Type of data set: cell-based, Escherichia coli. The settings on record: ATCC 25922, Mueller-Hinton broth, 24 hr, 37°C, without replication; for MIC E.coli in the presence of 4% bovine serum albumin: 4% BSA added, macrobroth dilution; for MIC E.coli: CLSI macrobroth dilution, 5 x 10^5 CFU/mL. The essentials:
as §1

Another data set has as its system E.coli CAN-ICU 63074. Type of data set: cell-based, Escherichia coli. The settings on record: CAN-ICU 63074, Mueller-Hinton broth, 24 hr, 37°C, without replication; for MIC E.coli in the presence of 4% bovine serum albumin: 4% BSA added, macrobroth dilution; for MIC E.coli: CLSI macrobroth dilution, 5 x 10^5 CFU/mL. The essentials: as §1
For the next data set, the system named is K.pneumoniae ATCC 13883. Type of data set: cell-based, Klebsiella pneumoniae. The settings on record: ATCC 13883, Mueller-Hinton broth, 24 hr, 37°C, without replication; for MIC K.pneumoniae in the presence of 4% bovine serum albumin: 4% BSA added, macrobroth dilution; for MIC K.pneumoniae: CLSI macrobroth dilution, 5 x 10^5 CFU/mL. The gist of the method: as §1

The subject of another data set is MRSA ATCC 33592. Type of data set: cell-based, methicillin-resistant S. aureus. The settings on record: ATCC 33592, Mueller-Hinton broth, 24 hr, 37°C, without replication; for MIC MRSA in the presence of 4% bovine serum albumin: 4% BSA added, macrobroth dilution; for MIC MRSA: CLSI macrobroth dilution, 5 x 10^5 CFU/mL. The essentials: as §1

Converted amounts (≈) assume the structure as drawn. “And” between values parts separate entries of the source, which are not always exact repeats. Identical values can stand only once.

Regarding `CCCCCCCCCCCCCCCC[N+](C)(C)C.[Cl-]` [CTAC, Cetyltrimethylammonium chloride, reference compound], in the data set on MSSE 81388 CANWARD 2008, the “MIC MSSE in the presence of 4% bovine serum albumin” value stood at 16 µg/mL and the “MIC MSSE” value was 0.5 µg/mL. Besides, in data set [1], the “MIC S. maltophilia in the presence of 4% bovine serum albumin” value is recorded as 512 µg/mL and the “MIC S. maltophilia” value was 32 µg/mL. The “Percent haemolysis at 100µg/mL of compound” value (shortened to “Percent haemolysis”) in the data set with ovine erythrocytes is 77% and 77.05%. In the data set with E. faecalis ATCC 29212, the “MIC E. faecalis in the presence of 4% bovine serum albumin” value was 32 µg/mL and the “MIC E. faecalis” value is recorded as 1 µg/mL. In the data set on MRSE CAN-ICU 61589, the “MIC MRSE in the presence of 4% bovine serum albumin” value is listed as 128 µg/mL and the “MIC MRSE” value came out at 2 µg/mL. In addition, in data set [2], the “MIC A. baumannii in the presence of 4% bovine serum albumin” value is 512 µg/mL and the “MIC A. baumannii” value came to 32 µg/mL. For the same compound, in the data set on S.pneumoniae ATCC 49619, the “MIC S.pneumoniae in the presence of 4% bovine serum albumin” value turned out to be 8 µg/mL and the “MIC S.pneumoniae” value came to 2 µg/mL. Besides, in the data set on E.coli CAN-ICU 61714, the “MIC E.coli in the presence of 4% bovine serum albumin” value is reported as 512 µg/mL and the “MIC E.coli” value stood at 32 µg/mL. Moreover, in the data set on E.coli ATCC 25922, the “MIC E.coli in the presence of 4% bovine serum albumin” value amounted to 512 µg/mL and the “MIC E.coli” value was 16 µg/mL. In the data set on E.coli CAN-ICU 63074, the “MIC E.coli in the presence of 4% bovine serum albumin” value was 512 µg/mL and the “MIC E.coli” value is 16 µg/mL. Besides, in the data set on K.pneumoniae ATCC 13883, the “MIC K.pneumoniae in the presence of 4% bovine serum albumin” value is recorded as 512 µg/mL and the “MIC K.pneumoniae” value was determined as 16 µg/mL. In the data set with MRSA ATCC 33592, the “MIC MRSA in the presence of 4% bovine serum albumin” value is 32 µg/mL and the “MIC MRSA” value is listed as 1 µg/mL.
As to `NCCCCN(CC(N)=O)C(=O)CNC(=O)CN(CCCCN)C(=O)CCC(F)(F)C(F)(F)C(F)(F)C(F)(F)C(F)(F)C(F)(F)C(F)(F)C(F)(F)F` [F11-NlysGNlys], in the data set on MSSE 81388 CANWARD 2008, the “MIC MSSE in the presence of 4% bovine serum albumin” value is recorded as 128 µg/mL and the “MIC MSSE” value turned out to be 32 µg/mL (≈ 39.8 µM). In data set [1], the “MIC S. maltophilia in the presence of 4% bovine serum albumin” value is above 512 µg/mL and the “MIC S. maltophilia” value is given as above 512 µg/mL. Moreover, in the data set with ovine erythrocytes, the “Percent haemolysis” value stood at 4.84%. Also, in the data set on E. faecalis ATCC 29212, the “MIC E. faecalis in the presence of 4% bovine serum albumin” value is reported as 256 µg/mL and the “MIC E. faecalis” value stood at 64 µg/mL (≈ 79.5 µM). Moreover, in the data set with MRSE CAN-ICU 61589, the “MIC MRSE in the presence of 4% bovine serum albumin” value is recorded as 256 µg/mL and the “MIC MRSE” value was 32 µg/mL (≈ 39.8 µM). Also, in [2], the “MIC A. baumannii in the presence of 4% bovine serum albumin” value is given as above 512 µg/mL and the “MIC A. baumannii” value is on record as above 512 µg/mL. For the same compound, in the data set with S.pneumoniae ATCC 49619, the “MIC S.pneumoniae in the presence of 4% bovine serum albumin” value is given as 512 µg/mL and the “MIC S.pneumoniae” value stood at 256 µg/mL (≈ 318 µM). Besides, in the data set with E.coli CAN-ICU 61714, the “MIC E.coli in the presence of 4% bovine serum albumin” value is on record as 512 µg/mL and the “MIC E.coli” value was 512 µg/mL (≈ 636 µM). Moreover, in the data set on E.coli ATCC 25922, the “MIC E.coli in the presence of 4% bovine serum albumin” value is 512 µg/mL and the “MIC E.coli” value stood at 512 µg/mL (≈ 636 µM). In addition, in the data set on E.coli CAN-ICU 63074, the “MIC E.coli in the presence of 4% bovine serum albumin” value is above 512 µg/mL and the “MIC E.coli” value worked out at 512 µg/mL (≈ 636 µM). Further, in the data set with K.pneumoniae ATCC 13883, the “MIC K.pneumoniae in the presence of 4% bovine serum albumin” value was above 512 µg/mL and the “MIC K.pneumoniae” value is reported as above 512 µg/mL. For the same compound, in the data set on MRSA ATCC 33592, the “MIC MRSA in the presence of 4% bovine serum albumin” value was 256 µg/mL and the “MIC MRSA” value is listed as 64 µg/mL (≈ 79.5 µM).
With `NCCCCN(CC(N)=O)C(=O)CN(CCCCN)C(=O)CN(CCCCN)C(=O)CCC(F)(F)C(F)(F)C(F)(F)C(F)(F)C(F)(F)C(F)(F)C(F)(F)C(F)(F)F` [F11-NlysNlysNlys], in the data set on MSSE 81388 CANWARD 2008, the “MIC MSSE in the presence of 4% bovine serum albumin” value was found to be 128 µg/mL and the “MIC MSSE” value is on record as 32 µg/mL (≈ 36.5 µM). Further, in [1], the “MIC S. maltophilia in the presence of 4% bovine serum albumin” value was above 512 µg/mL and the “MIC S. maltophilia” value is above 512 µg/mL. Further, the “Percent haemolysis” value in the data set with ovine erythrocytes was determined as 8.13%. In addition, in the data set with E. faecalis ATCC 29212, the “MIC E. faecalis in the presence of 4% bovine serum albumin” value was determined as 512 µg/mL and the “MIC E. faecalis” value stood at 64 µg/mL (≈ 73.1 µM). Moreover, in the data set with MRSE CAN-ICU 61589, the “MIC MRSE in the presence of 4% bovine serum albumin” value turned out to be 256 µg/mL and the “MIC MRSE” value is 32 µg/mL (≈ 36.5 µM). Moreover, in data set [2], the “MIC A. baumannii in the presence of 4% bovine serum albumin” value was above 512 µg/mL and the “MIC A. baumannii” value was above 512 µg/mL. In the data set on S.pneumoniae ATCC 49619, the “MIC S.pneumoniae in the presence of 4% bovine serum albumin” value was 512 µg/mL and the “MIC S.pneumoniae” value stood at 128 µg/mL (≈ 146 µM). In the data set on E.coli CAN-ICU 61714, the “MIC E.coli in the presence of 4% bovine serum albumin” value was found to be 256 µg/mL and the “MIC E.coli” value was determined as 64 µg/mL (≈ 73.1 µM). Besides, in the data set on E.coli ATCC 25922, the “MIC E.coli in the presence of 4% bovine serum albumin” value is recorded as 256 µg/mL and the “MIC E.coli” value came out at 64 µg/mL (≈ 73.1 µM). Besides, in the data set on E.coli CAN-ICU 63074, the “MIC E.coli in the presence of 4% bovine serum albumin” value came out at 512 µg/mL and the “MIC E.coli” value amounted to 128 µg/mL (≈ 146 µM). Also, in the data set on K.pneumoniae ATCC 13883, the “MIC K.pneumoniae in the presence of 4% bovine serum albumin” value is above 512 µg/mL and the “MIC K.pneumoniae” value is recorded as above 512 µg/mL. Also, in the data set with MRSA ATCC 33592, the “MIC MRSA in the presence of 4% bovine serum albumin” value is given as 256 µg/mL and the “MIC MRSA” value stood at 32 µg/mL (≈ 36.5 µM).
